Source: PMC4420714 (Peptides, 2015)
Entries after “also recorded” stand apart in the source; their conditions may differ.

Columns and labels:
VPAC2-R [1] = molecular target: T1, VPAC2-R (Homo sapiens, UniProt P41587); test: Binding of 125I-PACAP27 to VPAC2-R/PANC-1 cells; details: ratio of binding IC50, analog vs native parent peptide
T1 sequence (P41587 24-438): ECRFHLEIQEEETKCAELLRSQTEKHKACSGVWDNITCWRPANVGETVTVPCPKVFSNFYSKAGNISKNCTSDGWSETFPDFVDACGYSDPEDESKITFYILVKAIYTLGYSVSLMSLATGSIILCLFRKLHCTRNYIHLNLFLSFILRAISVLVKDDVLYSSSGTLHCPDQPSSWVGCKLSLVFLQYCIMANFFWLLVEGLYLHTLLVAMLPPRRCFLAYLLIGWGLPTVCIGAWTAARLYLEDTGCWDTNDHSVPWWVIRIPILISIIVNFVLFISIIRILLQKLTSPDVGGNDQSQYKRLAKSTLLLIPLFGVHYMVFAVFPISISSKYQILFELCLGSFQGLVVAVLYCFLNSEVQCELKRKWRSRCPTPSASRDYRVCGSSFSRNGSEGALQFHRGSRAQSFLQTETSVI

VPAC2-R [2] = molecular target: T1, VPAC2-R; test: [3H]cAMP generation in VPAC2-R/PANC-1 cells; assay type: cell-based; details: VPAC2-R/PANC-1 cells; relative to PACAP38; up to 1 µM
VPAC1-R [3] = molecular target: T2, VPAC1-R (Homo sapiens, UniProt P32241); test: Binding of 125I-VIP to VPAC1-R/PANC-1 cells; details: ratio of binding IC50, analog vs native parent peptide
T2 sequence (P32241 31-457): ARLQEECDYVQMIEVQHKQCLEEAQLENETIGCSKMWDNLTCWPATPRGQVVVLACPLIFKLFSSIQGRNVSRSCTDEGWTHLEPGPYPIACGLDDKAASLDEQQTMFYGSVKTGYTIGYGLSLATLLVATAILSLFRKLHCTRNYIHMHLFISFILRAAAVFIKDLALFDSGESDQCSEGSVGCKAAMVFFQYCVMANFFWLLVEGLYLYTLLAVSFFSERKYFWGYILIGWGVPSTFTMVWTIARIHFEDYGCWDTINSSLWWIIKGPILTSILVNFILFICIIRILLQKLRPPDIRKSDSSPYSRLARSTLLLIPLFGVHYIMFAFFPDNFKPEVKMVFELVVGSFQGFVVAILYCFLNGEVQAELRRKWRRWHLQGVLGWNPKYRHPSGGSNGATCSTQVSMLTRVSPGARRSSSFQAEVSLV

VPAC1-R [4] = molecular target: T2, VPAC1-R; test: [3H]cAMP generation in T47D cells; assay type: cell-based; details: for [3H]cAMP T47D % max (agonist class): relative to PACAP38, up to 1 µM
VPAC1-R [5] = molecular target: T2, VPAC1-R; test: [3H]cAMP generation in VPAC1-R/PANC-1 cells; assay type: cell-based; details: VPAC1-R/PANC-1 cells; relative to PACAP38; up to 1 µM

Substance	decrease in affinity for VPAC2-R/PANC-1 cells compared to native PACAP38 (or PACAP27, VIP) (VPAC2-R [1])	decrease in affinity for VPAC1-R/PANC-1 cells compared to native PACAP38 (or PACAP27, VIP) (VPAC1-R [3])	[3H]cAMP T47D % max, agonist activity at 1 µM, still increasing (VPAC1-R [4])	[3H]cAMP T47D % max (agonist class) (VPAC1-R [4])	[3H]cAMP VPAC2-R/PANC-1 % max (agonist class) (VPAC2-R [2])	[3H]cAMP VPAC1-R/PANC-1 % max (agonist class) (VPAC1-R [5])
[Hyp^3,Aib^16,Ala^17,Lys^34]PACAP38 [Peptide P31]	50–400 fold					
[Lys(palmitoyl)^38]PACAP38 [Peptide P12]	16–21 fold					
[Me-Asp^3,Aib^16,28,Lys^34,D-Lys^38]PACAP38 [Peptide P33]	40–85 fold					
[Pip^3,Ala^15,17,Aib^16,28,Lys^34,D-Lys^38]PACAP38 [Peptide P38]					no agonist activity; also recorded: No Act	
[D-Ser^2,Lys(Palmitoyl)^38]PACAP38 [Peptide P13]	16–21 fold					
[N-Ac-His^1,Ala^16,17,D-Lys^38]PACAP38 [Peptide P28]	2-to-6 fold					
[Pip^3,Aib^16,28,Ala^17,21,Lys^34,D-Lys^38]PACAP38 [Peptide P40]					no agonist activity; also recorded: No Act	
[Iaa^1,D-Tyr^2,Ala^22]PACAP38 [Peptide P49]	50–400 fold					
[Ala^16,17,D-Lys^38]PACAP38 [Peptide P23]	2-to-6 fold					

Now from value to substance, other results behind:

decrease in affinity for VPAC2-R/PANC-1 cells compared to native PACAP38 (or PACAP27, VIP) (VPAC2-R [1])	decrease in affinity for VPAC1-R/PANC-1 cells compared to native PACAP38 (or PACAP27, VIP) (VPAC1-R [3])	[3H]cAMP T47D % max, agonist activity at 1 µM, still increasing (VPAC1-R [4])	[3H]cAMP T47D % max (agonist class) (VPAC1-R [4])	Substance	[3H]cAMP VPAC2-R/PANC-1 % max (agonist class) (VPAC2-R [2])	[3H]cAMP VPAC1-R/PANC-1 % max (agonist class) (VPAC1-R [5])
15–500 fold				[N-Ac-His^1,Pip^3]PACAP38 [Peptide P27]	Ag (1 µM, 18)	
6–132 fold	100–500 fold	Ag (1 µM, 69) % max	Ag (1 µM, 69)	[Sar^3]PACAP27 [Peptide P6]	no agonist activity; also recorded: No Act	
15–500 fold				[Sar^3]PACAP38 [Peptide P19]	Ag (1 µM, 35)	
6–132 fold	100–500 fold		No Act	[Sar^4]PACAP27 [Peptide P22]	no agonist activity; also recorded: No Act	no agonist activity; also recorded: No Act
6–132 fold	100–500 fold	Ag (1 µM, 16) % max	Ag (1 µM, 16)	[Pro^3]PACAP27 [Peptide P5]	no agonist activity; also recorded: No Act	Ag (1 µM, 23)
15–500 fold				[Pip^3]PACAP38 [Peptide P26]	no agonist activity; also recorded: No Act	
	> 1,000 fold		No Act	[Pip^3,Aib^16,Ala^17]PACAP27 [Peptide P7]	no agonist activity; also recorded: No Act	no agonist activity; also recorded: No Act
